# Assay results: US20210346419A1, “COMPOSITIONS AND METHODS FOR DIAGNOSIS AND TREATMENT OF CONDITIONS RELATED TO THE QUALITY OF AGING AND LONGEVITY” (EPITRACKER, INC., priority 2019, published 2021)
# How the values were obtained:
# SAg human cell system = experiment: BioMAP Diversity PLUS primary human cell phenotypic profiling, SAg system; format: cell-based; details: 6.7 and/or 20 μM, 24 to 72 hours; for Proliferation, Log10 ratio of treated vs. non-treated systems: T cell proliferation
# Description: (§1) It was hypothesized that, given the compounds' associations with lower risks of comorbidities of aging in long-lived dolphins, the compounds of the embodiments would have relevant activities in human cell systems mimicking conditions related to the quality of aging and longevity. To test this hypothesis, 12 primary human cell systems from the BioMAP Diversity PLUS® panel (Eurofins/DiscoverX, Fremont, Calif.) mimicking inflammation and fibrosis relevant to chronic inflammation, liver disease, respiratory disease, skin disease, wound healing, scarring, allergies, asthma, autoimmune disease, cancer, and cardiovascular disease, were exposed to pure, synthetic forms of the selected compounds at one or two concentrations (6.7 and/or 20 μM). Quantitative measurements of 148 biomarker activities across this broad panel, along with comparative analysis of biological activities from known bioactive agents, were used to predict and compare the efficacy and function of the targeted compounds across these systems compared to non-treated control systems. Activated BioMAP systems were incubated with the targeted compounds for 24 to 72 hours. Biomarker activities were considered significant when biomarker values were outside of the 95th percentile significance envelope and had at least one concentration with an effect size >20% (log 10 ratio) >0.1. FIG. 2 describes the different cell systems.
# (§2) The summary is of relevant diseases and tissues treated with selected compounds at 6.7 to 20 μM, based on primary human cell phenotypic profiling.
# BT human cell system = experiment: BioMAP Diversity PLUS primary human cell phenotypic profiling, BT system; format: cell-based; details: 6.7 and/or 20 μM, 24 to 72 hours
# Description: as §1, §2
# 4H human cell system = experiment: BioMAP Diversity PLUS primary human cell phenotypic profiling, 4H system; format: cell-based; details: 6.7 and/or 20 μM, 24 to 72 hours
# Description: as §1, §2
# [1] = tested on: HDF3CGF human cell system; experiment: BioMAP Diversity PLUS primary human cell phenotypic profiling, HDF3CGF system; format: cell-based; details: 6.7 and/or 20 μM, 24 to 72 hours
# Description: as §1, §2
# MyoF human cell system = experiment: BioMAP Diversity PLUS primary human cell phenotypic profiling, MyoF system; format: cell-based; details: 6.7 and/or 20 μM, 24 to 72 hours
# Description: as §1, §2
# 3C human cell system = experiment: BioMAP Diversity PLUS primary human cell phenotypic profiling, 3C system; format: cell-based; details: 6.7 and/or 20 μM, 24 to 72 hours
# Description: as §1, with “cell systems. […]” for “cell systems.”
# BE3C human cell system = experiment: BioMAP Diversity PLUS primary human cell phenotypic profiling, BE3C system; format: cell-based; details: 6.7 and/or 20 μM, 24 to 72 hours
# Description: as §1, §2
# KF3CT human cell system = experiment: BioMAP Diversity PLUS primary human cell phenotypic profiling, KF3CT system; format: cell-based; details: 6.7 and/or 20 μM, 24 to 72 hours
# Description: as §1, §2
# CASM3C human cell system = experiment: BioMAP Diversity PLUS primary human cell phenotypic profiling, CASM3C system; format: cell-based; details: coronary artery smooth muscle cell proliferation, 6.7 and/or 20 μM, 24 to 72 hours
# Description: as §1, with “cell systems. […]” for “cell systems.”
# LPS human cell system = experiment: BioMAP Diversity PLUS primary human cell phenotypic profiling, LPS system; format: cell-based; details: 6.7 and/or 20 μM, 24 to 72 hours
# Description: as §1, §2
# /Mphg human cell system = experiment: BioMAP Diversity PLUS primary human cell phenotypic profiling, /Mphg system; format: cell-based; details: 6.7 and/or 20 μM, 24 to 72 hours
# Description: as §1, §2
# BF4T human cell system = experiment: BioMAP Diversity PLUS primary human cell phenotypic profiling, BF4T system; format: cell-based; details: 6.7 and/or 20 μM, 24 to 72 hours
# Description: as §1, with “cell systems. […]” for “cell systems.”
# [2] = room temperature; cited from earlier work
structure (smiles),measurement,setting,value
N=C(N)NCCCC(=O)O [4-guanidinobutanoate],"CD38, Log10 ratio of treated vs. non-treated systems",SAg human cell system,−0.10
same,"Proliferation, Log10 ratio of treated vs. non-treated systems",SAg human cell system,−0.13
same,"IL-17A (sIL-17A), Log10 ratio of treated vs. non-treated systems",BT human cell system,−0.17
same,"TNF-α (sTNF-α), Log10 ratio of treated vs. non-treated systems",BT human cell system,−0.10
same,"sIgG, Log10 ratio of treated vs. non-treated systems",BT human cell system,−0.49
same,"MCP-1, Log10 ratio of treated vs. non-treated systems",4H human cell system,−0.12
same,"CXCL10, Log10 ratio of treated vs. non-treated systems",[1],−0.11
same,"CXCL11, Log10 ratio of treated vs. non-treated systems",[1],−0.19
same,"Collagen III, Log10 ratio of treated vs. non-treated systems",[1],−0.23
same,"Proliferation, Log10 ratio of treated vs. non-treated systems",[1],−1.09
same,"TIMP-1, Log10 ratio of treated vs. non-treated systems",[1],−0.14
same,"VCAM-1 (VCAM1), Log10 ratio of treated vs. non-treated systems",[1],−0.19
same,"Collagen IV, Log10 ratio of treated vs. non-treated systems",MyoF human cell system,0.13
CC(=O)N[C@H](C(=O)O)[C@@H](C)O [N-acetylthreonine],"sIgG, Log10 ratio of treated vs. non-treated systems",BT human cell system,−0.41
same,"VEGFR2, Log10 ratio of treated vs. non-treated systems",4H human cell system,−0.16
"Nc1ncnc2c1ncn2[C@@H]1O[C@H](CSCC[C@H](N)C(=O)O)[C@@H](O)[C@H]1O [S-adenosylhomocysteine (SAH), S-adenosylhomocysteine]","Proliferation, Log10 ratio of treated vs. non-treated systems",3C human cell system; endothelial cell proliferation,−0.27
same,"Proliferation, Log10 ratio of treated vs. non-treated systems",SAg human cell system,−0.21
same,"sIgG, Log10 ratio of treated vs. non-treated systems",BT human cell system,−0.29
same,"CXCL8, Log10 ratio of treated vs. non-treated systems",BE3C human cell system,−0.13
same,"CXCL11, Log10 ratio of treated vs. non-treated systems",BE3C human cell system,−0.13
same,"HLA-DR, Log10 ratio of treated vs. non-treated systems",BE3C human cell system,−0.13
same,"MMP-9, Log10 ratio of treated vs. non-treated systems",BE3C human cell system,−0.24
same,"CXCL10, Log10 ratio of treated vs. non-treated systems",[1],−0.19
same,"CXCL11, Log10 ratio of treated vs. non-treated systems",[1],−0.25
same,"Collagen III, Log10 ratio of treated vs. non-treated systems",[1],−0.21
same,"M-CSF, Log10 ratio of treated vs. non-treated systems",[1],−0.19
same,"MCP-1, Log10 ratio of treated vs. non-treated systems",[1],−0.14
same,"PAI-1, Log10 ratio of treated vs. non-treated systems",[1],−0.23
same,"Proliferation, Log10 ratio of treated vs. non-treated systems",[1],−1.10
same,"TIMP-1, Log10 ratio of treated vs. non-treated systems",[1],−0.14
same,"VCAM-1 (VCAM1), Log10 ratio of treated vs. non-treated systems",[1],−0.17
same,"Alpha-SM actin, Log10 ratio of treated vs. non-treated systems",MyoF human cell system,−0.18
same,"Collagen I, Log10 ratio of treated vs. non-treated systems",MyoF human cell system,−0.15
same,"Collagen III, Log10 ratio of treated vs. non-treated systems",MyoF human cell system,−0.27
same,"Collagen IV, Log10 ratio of treated vs. non-treated systems",MyoF human cell system,0.31
same,"VCAM-1, Log10 ratio of treated vs. non-treated systems",MyoF human cell system,−0.12
same,"MMP-9, Log10 ratio of treated vs. non-treated systems",KF3CT human cell system,−0.10
same,"PAI-1, Log10 ratio of treated vs. non-treated systems",KF3CT human cell system,−0.28
C[C@H](CCC(=O)O)[C@H]1CC[C@H]2[C@@H]3[C@H](O)C[C@@H]4C[C@H](O)CC[C@]4(C)[C@H]3CC[C@]12C [chenodeoxycholate],"CXCL8, Log10 ratio of treated vs. non-treated systems",SAg human cell system,−0.10
C[C@H](CCC(=O)O)[C@H]1CC[C@H]2[C@@H]3[C@H](O)C[C@@H]4C[C@H](O)CC[C@]4(C)[C@H]3C[C@H](O)[C@]12C [cholate],"MMP-1, Log10 ratio of treated vs. non-treated systems",BE3C human cell system,−0.10
N[C@@H](CCC(=O)N[C@@H](Cc1c[nH]cn1)C(=O)O)C(=O)O [gamma-glutamylhistidine],"Proliferation, Log10 ratio of treated vs. non-treated systems",CASM3C human cell system,0.11
same,"CD40, Log10 ratio of treated vs. non-treated systems",LPS human cell system,−0.11
same,"E-selectin, Log10 ratio of treated vs. non-treated systems",LPS human cell system,−0.11
same,"Tissue factor, Log10 ratio of treated vs. non-treated systems",3C human cell system,−0.12
same,"CXCL8, Log10 ratio of treated vs. non-treated systems",/Mphg human cell system,−0.15
same,"TNF-α (sTNF-α), Log10 ratio of treated vs. non-treated systems",BT human cell system,−0.18
same,"MMP-1, Log10 ratio of treated vs. non-treated systems",BE3C human cell system,−0.10
O=C(O)CNC(=O)c1ccccc1 [hippurate],"Proliferation, Log10 ratio of treated vs. non-treated systems",CASM3C human cell system,−0.10
same,"CD40, Log10 ratio of treated vs. non-treated systems",LPS human cell system,−0.11
same,"CXCL8, Log10 ratio of treated vs. non-treated systems",/Mphg human cell system,−0.12
same,"MMP-1, Log10 ratio of treated vs. non-treated systems",BE3C human cell system,−0.11
same,"P-selectin, Log10 ratio of treated vs. non-treated systems",4H human cell system,−0.10
O[C@H]1[C@H](O)[C@@H](O)[C@H](O)[C@@H](O)[C@H]1O [myo-inositol],"Eotaxin-3, Log10 ratio of treated vs. non-treated systems",BF4T human cell system,−0.19
same,"MCP-1, Log10 ratio of treated vs. non-treated systems",BF4T human cell system,−0.21
same,"Proliferation, Log10 ratio of treated vs. non-treated systems",SAg human cell system,−0.20
same,"IL-1α, Log10 ratio of treated vs. non-treated systems",/Mphg human cell system,−0.10
same,"IL-17A (sIL-17A), Log10 ratio of treated vs. non-treated systems",BT human cell system,−0.12
same,"TNF-α (sTNF-α), Log10 ratio of treated vs. non-treated systems",BT human cell system,−0.21
same,"sIL-2, Log10 ratio of treated vs. non-treated systems",BT human cell system,−0.16
same,"sIL-17F, Log10 ratio of treated vs. non-treated systems",BT human cell system,−0.15
same,"sIgG, Log10 ratio of treated vs. non-treated systems",BT human cell system,−0.62
same,"CXCL8, Log10 ratio of treated vs. non-treated systems",BE3C human cell system,−0.26
same,"CXCL10, Log10 ratio of treated vs. non-treated systems",BE3C human cell system,−0.58
same,"CXCL11, Log10 ratio of treated vs. non-treated systems",BE3C human cell system,−0.28
same,"EGFR, Log10 ratio of treated vs. non-treated systems",BE3C human cell system,−0.11
same,"HLA-DR, Log10 ratio of treated vs. non-treated systems",BE3C human cell system,−0.10
same,"ICAM-1, Log10 ratio of treated vs. non-treated systems",BE3C human cell system,−0.11
same,"MMP-9, Log10 ratio of treated vs. non-treated systems",BE3C human cell system,−0.25
same,"PAI-1, Log10 ratio of treated vs. non-treated systems",BE3C human cell system,−0.18
same,"MCP-1, Log10 ratio of treated vs. non-treated systems",4H human cell system,−0.13
same,"Collagen III, Log10 ratio of treated vs. non-treated systems",MyoF human cell system,−0.11
same,"Collagen IV, Log10 ratio of treated vs. non-treated systems",MyoF human cell system,0.24
same,"VCAM-1, Log10 ratio of treated vs. non-treated systems",MyoF human cell system,−0.11
same,"CXCL10, Log10 ratio of treated vs. non-treated systems",KF3CT human cell system,−0.26
same,"IL-1α, Log10 ratio of treated vs. non-treated systems",KF3CT human cell system,−0.11
same,"MMP-9, Log10 ratio of treated vs. non-treated systems",KF3CT human cell system,−0.18
same,"PAI-1, Log10 ratio of treated vs. non-treated systems",KF3CT human cell system,−0.27
"COc1cc(C(O)C(=O)O)ccc1O (stereo not shown) [vanillylmandelate (VMA), vanillylmandelate]","CXCL8, Log10 ratio of treated vs. non-treated systems",/Mphg human cell system,−0.18
O=c1[nH]c(=O)c2ncn([C@@H]3O[C@H](CO)[C@@H](O)[C@H]3O)c2[nH]1 [xanthosine],Physical state and stability,[2],solid that is stable at room temperature
same,"CD40, Log10 ratio of treated vs. non-treated systems",LPS human cell system,−0.12
same,"Tissue factor, Log10 ratio of treated vs. non-treated systems",LPS human cell system,−0.13
same,"CXCL8, Log10 ratio of treated vs. non-treated systems",/Mphg human cell system,−0.13
